{
  "source": "patent US20090281152A1",
  "about": "“Indole Compounds Having Affinity to the EP1 Receptor” (priority 2006, published 2009)",
  "key": {"[1]": {"system": "rat model of chronic constriction injury", "details": "Anesthesia and Analgesia 2001, 93, 1012-7; cited from earlier work"}, "[2]": {"system": "rodent model of post-operative pain", "details": "Anesthesia and Analgesia 2001, 92, 233-238; cited from earlier work"}, "[3]": {"target": "T1, human EP3 receptor (Homo sapiens, UniProt P43115)", "T1 construct": "expressed in transfected cells; host or cells: CHO-K1 cells, pCIN vector", "T1 sequence (P43115 1-390)": "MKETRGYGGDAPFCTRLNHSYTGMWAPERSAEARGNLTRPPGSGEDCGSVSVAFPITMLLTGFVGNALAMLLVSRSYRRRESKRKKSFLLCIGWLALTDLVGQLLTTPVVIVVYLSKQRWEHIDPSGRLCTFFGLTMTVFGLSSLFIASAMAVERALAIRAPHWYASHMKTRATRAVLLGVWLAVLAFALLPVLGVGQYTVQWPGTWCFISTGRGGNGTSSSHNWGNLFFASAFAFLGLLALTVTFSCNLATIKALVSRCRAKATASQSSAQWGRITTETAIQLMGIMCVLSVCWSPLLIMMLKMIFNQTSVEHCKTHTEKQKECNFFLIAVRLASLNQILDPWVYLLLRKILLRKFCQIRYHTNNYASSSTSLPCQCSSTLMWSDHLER", "assay": "human EP3 calcium mobilisation assay (FLIPR, CHO-K1 cells)", "assay_type": "cell-based", "details": "antagonism of PGE2-induced calcium mobilisation, averages of a number of experiments, read-out: functional pKi (converted)", "experimental": "Briefly, the antagonist properties of compounds are assessed by their ability to inhibit the mobilisation of intracellular calcium ([Ca^2+]i) in response to activation of EP1 or EP3 receptors by the natural agonist hormone prostaglandin E2 (PGE2). Increasing concentrations of antagonist reduce the amount of calcium that a given concentration of PGE2 can mobilise. The net effect is to displace the PGE2 concentration-effect curve to higher concentrations of PGE2. The amount of calcium produced is assessed using a calcium-sensitive fluorescent dye such as Fluo-4, AM and a suitable instrument such as a Fluorimetric Imaging Plate Reader (FLIPR). Increasing amounts of [Ca^2+]i produced by receptor activation increase the amount of fluorescence produced by the dye and give rise to an increasing signal. The signal may be detected using the FLIPR instrument and the data generated may be analysed with suitable curve-fitting software.\nThe human EP1 or EP3 calcium mobilisation assay (hereafter referred to as ‘the calcium assay’) utilises Chinese hamster ovary-K1 (CHO-K1) cells into which a stable (pCIN; BioTechniques 20 (1996): 102-110) vector containing either EP1 or EP3 cDNA has previously been transfected. Cells are cultured in suitable flasks containing culture medium such as DMEM:F-12 supplemented with 10% v/v foetal calf serum, 2 mM L-glutamine, 0.25 mg/ml geneticin, 100 μM flurbiprofen and 10 μg/ml puromycin.\nFor assay, cells are harvested using a proprietary reagent that dislodges cells such as Versene. Cells are re-suspended in a suitable quantity of fresh culture media for introduction into a 384-well plate. Following incubation for 24 hours at 37° C. the culture media is replaced with a medium containing Fluo-4 and the detergent pluronic acid, and a further incubation takes place. Concentrations of compounds are then added to the plate in order to construct concentration-effect curves. This may be performed on the FLIPR in order to assess the agonist properties of the compounds. […]\nThe data so generated may be analysed by means of a computerised curve-fitting routine. […]"}},
  "data": [
    {"compound": "Cc1cc(Cl)ccc1S(=O)(=O)NC[C@H]1C2CCC(CC2)[C@@H]1/C=C\\CCCC(=O)O", "note": "[ONO-8711]", "values": [
      {"measurement": "hyperalgesia and allodynia", "setting": "[1]", "result": "reduces hyperalgesia and allodynia"},
      {"measurement": "mechanical hyperalgesia", "setting": "[2]", "result": "inhibits mechanical hyperalgesia"}
    ]},
    {"compound": "CC(C)Cn1cc(-c2nc(C(=O)O)cs2)c2cc(Cl)ccc21", "note": "[Example 7, 2-[5-Chloro-1-(2-methylpropyl)-1H-indol-3-yl]-1,3-thiazole-4-carboxylic acid]", "values": [
      {"measurement": "Ki", "setting": "[3]", "result": "≥ 1000", "unit": "nM"}
    ]},
    {"compound": "CC(C)Cn1cc(-c2nc(C(=O)O)co2)c2cc(Cl)ccc21", "note": "[Example 8, 2-[5-Chloro-1-(2-methylpropyl)-1H-indol-3-yl]-1,3-oxazole-4-carboxylic acid]", "values": [
      {"measurement": "Ki", "setting": "[3]", "result": "≥ 1000", "unit": "nM"}
    ]},
    {"compound": "Cc1ccc2c(c1)c(-c1nc(C(=O)NS(=O)(=O)c3ccccc3)co1)cn2CC(C)C", "note": "[Example 10, 2-[5-Methyl-1-(2-methylpropyl)-1H-indol-3-yl]-N-(phenylsulfonyl)-1,3-oxazole-4-carboxamide]", "values": [
      {"measurement": "Ki", "setting": "[3]", "result": "> 316", "unit": "nM"}
    ]}
  ]
}
